Usually cell viability stands for the share of living cells, or the viability signal relative to a control.

We go through three compounds from patent publication US20260232590A1, “LIPID NANOPARTICLES FOR THE TREATMENT OF OCULAR DISEASES” (UNIVERSITAT DE BARCELONA, priority 2023, published 2026).

Some results are limits rather than exact numbers.

For series [1] the following is noted: concentration of 0.5%; cited from earlier work.
For series [2], the system named is chorioallantoic membrane of a fertilized chicken egg. The series can be described thus: In vitro ocular tolerance HET-CAM test. The note with it: 300 μL, first 5 min. Here is the method: In vitro ocular tolerance was assessed using the HET-CAM test to ensure that the formulations of Loaded Lipid Nanoparticles were non-irritating when administered as eye-drops. Irritation, coagulation, and haemorrhage phenomena were measured by applying 300 μL of the formulation studied on chorioallantoic membrane of a fertilized chicken egg and monitoring it during the first 5 min after the application. This assay was conducted according to the guidelines of ICCVAM (The Interagency Coordinating Committee on the Validation of Alternative Methods). The development of the test was carried out using 3 eggs for each group (free APG, Loaded Lipid Nanoparticles, positive control (NaOH 0.1 M) and negative control (0.9% NaCl)). The ocular irritation index (OII) was calculated by the sum of the scores of each injury according to the following expression (Eq 3):
[formula] • where H, V and C are times (s) until the start of haemorrhage (H), vasoconstriction (V) and coagulation (C), respectively. The formulations were classified according to the following: OII≤0.9 non-irritating; 0.9<OII≤4.9 weakly irritating; 4.9<OII≤8.9 moderately irritating; 8.9<OII≤21 irritating.

Series [3] deals with New Zealand male albino rabbits. The series can be described thus: In vivo primary eye irritation test of Draize. On the set-up: species or system rabbit. As to the method:
All of the procedures were approved by the Ethical Committee for Animal Experimentation of the UB and current legislation (Decree 214/97, Gencat). The formulations were evaluated using primary eye irritation test of Draize to ensure the results obtained from the […] test. For this experiment, New Zealand male albino rabbits (2.0-2.5 kg, San Bernardo farm, Navarra, Spain) were used. 50 μL of each sample were instilled in the ocular conjunctival sac (n=3/group) and a mild massage was applied to guarantee the passage of the sample through the eyeball. […] The opposite untreated eye was used as a negative control. Draize test score was determined directly by observing the anterior segment of the eye and changes in the structures of the cornea (turbidity or opacity), iris and conjunctiva (congestion, chemosis, swelling and secretion).

Series [4] deals with dry eye induced by 0.1% benzalkonium chloride. Nature of the series: Dry eye disease model, fluorescein staining of the ocular surface. It counts as in vivo, New Zealand white rabbits. The conditions noted are these: twice-daily topical, one week. As to the method: In order to evaluate the potential to treat dry eye of Loaded Lipid Nanoparticles, Schirmer test, fluorescein and Bengal rose assessments were performed against Lipid Nanoparticles, free APG and 0.15% hyaluronic acid (commercial solution Hyabak®). Twelve male New Zealand white rabbits (purchased from Livestock Research Institute, Council of Agriculture, Executive Yuan, Taiwan) weighing between 2.0 and 2.5 kg were used for the study. The rabbits were randomly divided into 4 groups: Lipid Nanoparticles, Loaded Lipid Nanoparticles, free APG solution and 0.15% hyaluronic acid (commercial solution (Hyabak®). All rabbits were housed at a room temperature of 23±2° C. with relative humidity 75±10% and alternating 12-hour light-dark cycles (8 a.m. to 8 p.m.). Both eyes of each rabbit were treated twice-daily by a topical administration of 0.1% benzalkonium chloride (BAC) drops for 2 weeks. On day 14, DES was confirmed by Schirmer test, fluorescein and Bengal rose staining. The treatment began after the confirmation of DES, where on eye of each rabbit was chosen randomly for twice-daily topical administration of Lipid Nanoparticles, Loaded Lipid Nanoparticles, free APG solution and a commercial solution. After one week of treatment, Schirmer test, fluorescein and Bengal rose staining were performed. Fluorescein staining is an effective method for ocular surface evaluation. […]

Series [5] is described as follows: In vitro APG release, Franz-type diffusion cells. The series is classed as in vitro ADME. As to the method: The in vitro APG release test for Loaded Lipid Nanoparticles was performed using Franz-type diffusion cells (Crown Glass, NY, USA) with a diffusion area of 0.20 cm^2 and dialysis membranes of cellulose (MWCO 12 kDa). A solution of PBS with 5% polysorbate 80 and 20% ethanol under continuous stirring was used as a receptor medium assuring sink conditions (ability of the medium to dissolve the expected amount of drug). The formulations were compared with free-APG solution. The assay was carried out at 32±0.5° C. along 48 h. 300 μL of each formulation were added to the donor compartment by direct contact with the membrane. At a certain timepoints, 150 μL of sample were collected with a syringe and the volume withdrawn was replaced with receptor solution. Drug content of the samples was analysed with HPLC. The test was performed by triplicate, and the cumulative amount of APG was calculated.

The subject of series [6] is dry eye induced by 0.1% benzalkonium chloride. The series can be described thus: Dry eye disease model, Schirmer test (aqueous tear production). The note with it: twice-daily topical, one week. The series is classed as in vivo, New Zealand white rabbits. As to the method:
In order to evaluate the potential to treat dry eye of Loaded Lipid Nanoparticles, Schirmer test, fluorescein and Bengal rose assessments were performed against Lipid Nanoparticles, free APG and 0.15% hyaluronic acid (commercial solution Hyabak®). Twelve male New Zealand white rabbits (purchased from Livestock Research Institute, Council of Agriculture, Executive Yuan, Taiwan) weighing between 2.0 and 2.5 kg were used for the study. The rabbits were randomly divided into 4 groups: Lipid Nanoparticles, Loaded Lipid Nanoparticles, free APG solution and 0.15% hyaluronic acid (commercial solution (Hyabak®). All rabbits were housed at a room temperature of 23±2° C. with relative humidity 75±10% and alternating 12-hour light-dark cycles (8 a.m. to 8 p.m.). Both eyes of each rabbit were treated twice-daily by a topical administration of 0.1% benzalkonium chloride (BAC) drops for 2 weeks. On day 14, DES was confirmed by Schirmer test, fluorescein and Bengal rose staining. The treatment began after the confirmation of DES, where on eye of each rabbit was chosen randomly for twice-daily topical administration of Lipid Nanoparticles, Loaded Lipid Nanoparticles, free APG solution and a commercial solution. […] Tear production was measured using Schirmer test strips. […] After 5 min, the wetted length (mm) of the paper strips was recorded.

The subject of the next series is UM 92.1 cancer cells. The series can be described thus: MTT cytotoxic capacity in ocular tumoral cells. It counts as cell-based, human. The conditions noted are these: 0.005-0.05 mg/mL, 24 h. Here is the method: (§1) Human corneal epithelial cells (HCE-2) (LGC Standards, Barcelona, Spain) were cultured in keratinocyte serum-free growth medium (SFM; Life Technologies, Invitrogen, GIBCO®, Paisley, UK)). It was supplemented with bovine pituitary extract 0.05 mg·mL^−1 and epidermal growth factor 5 ng·mL^−1 containing insulin 0.005 mg·mL^−1 and penicillin 100 U·mL^−1 plus streptomycin […]. Cells were grown on a culture flask to 80% confluency in a humidified 10% CO2 atmosphere at 37° C. Human UM 92-1 cells were maintained in RPMI-1640 medium, added with 10% fetal bovine serum (FBS), 2 mM L-glutamine, 100 units/mL penicillin and […] streptomycin. For MTT assay, passages from 10 to 13 were used. All the cells were incubated at 37° C. and 10% CO2 [28].
Cytotoxicity of Loaded Lipid Nanoparticles and Lipid Nanoparticles was determined by MTT (3-(4,5-Dimethylthiazol-2-yl)-2,5-diphenyl tetrazolium bromide) assay, by reduction of tetrazolium salt by intracellular dehydrogenases of viable living cells. […] Cell viability was then measured at wavelength of 560 nm in a Modulus® Microplate Photometer (Turner BioSystems Inc., Sunnyvale, CA, USA). Results were expressed as percentage of cell survival relative to untreated cells. […]

In a further series the test system is HCE-2 cells. Nature of the series: MTT cell viability in corneal cells. It counts as cell-based, human. The conditions noted are these: 5- and 15-minutes incubation. Here is the method:
as §1
Cytotoxicity of Loaded Lipid Nanoparticles and Lipid Nanoparticles was determined by MTT (3-(4,5-Dimethylthiazol-2-yl)-2,5-diphenyl tetrazolium bromide) assay, by reduction of tetrazolium salt by intracellular dehydrogenases of viable living cells. […] Cell viability was then measured at wavelength of 560 nm in a Modulus® Microplate Photometer (Turner BioSystems Inc., Sunnyvale, CA, USA). Results were expressed as percentage of cell survival relative to untreated cells.
The cytotoxicity of several concentrations of free APG, Loaded Lipid Nanoparticles, and the Lipid Nanoparticles (without APG) were evaluated on HCE-2 cells. […]

The subject of the next series is CAM of embryonated eggs. Nature of the series: Antiangiogenic activity, modified CAM test. More on the design: species or system chicken. The note with it: 40 μL, 48 h. As to the method: To determine the antiangiogenic effects of Loaded Lipid Nanoparticles, a modified choriolantoic membrane (CAM) test was used. It was carried out using fertilised chicken eggs incubated at 37° C. and 85% humidity from the farm […] (Tarragona, Spain). A lateral window was opened on the eggshell on the 3rd day of incubation and after 24 h of stabilization, 40 μL of the sample were inoculated to the CAM. Afterwards the membrane was sealed and incubated for 48 h. The controls of the experiments were NaCl as a normal angiogenic development, and basic fibroblast growth factor (bFGF) as a pro-angiogenic control (20 μL at 10 ng·mL^-1). Once CAM were evaluated, membranes were fixed by adding 4% paraformaldehyde overnight at 4° C. Next, membranes were extracted and observed using a binocular loupe. Afterwards, the obtained images were processed and the density of the vessels in the CAM was automatically measured using ImageJ vessel analysis plugin [34].

Series [7] has as its system chorioallantoic membrane of a fertilized chicken egg. Nature of the series: Trypan blue staining (TBS) of the CAM. The note with it: after HET-CAM. As to the method: Furthermore, at the end of the HET-CAM experiment, in order to quantify the damage of the membrane, trypan blue staining (TBS) was applied. The CAM was treated with 1000 μL of 0.1% trypan blue solution for 1 min. Excess dye was rinsed off with distilled water. The dyed CAM was excised and extracted with 5 mL formamide, and the absorbance of the extract was measured spectrophotometrically at 595 nm. The absorbed trypan blue was determined from a calibration curve of trypan blue in formamide.

For series [8], the system named is ocular inflammation induced by sodium arachidonate. Nature of the series: In vivo anti-inflammatory treatment study (sodium arachidonate). More on the design: species or system New Zealand male albino rabbits. The note with it: applied 30 min after SA. Here is the method: In vivo anti-inflammatory effectiveness was carried out throughout the evaluation test for the inflammation prevention ability and the anti-inflammatory efficacy. Assays were carried out using New Zealand male albino rabbits (n=3/group), described previously. The activity of Loaded Lipid Nanoparticles in comparison with free APG, Lipid Nanoparticles, and NaCl 0.9% (control group) was measured. The inflammation prevention study consisted of the ocular application of 50 μL of each formulation. After 30 min of exposure, an inflammatory stimulus, 50 μL of 0.5% sodium arachidonate (SA) dissolved in PBS, was instilled in the right eye and the left eye was used as a control. In the anti-inflammatory treatment study, the inflammatory stimulus was applied 30 min before than the application of each formulation tested. The evaluation of prevention and treatment of each formulation were carried out from the first application up to 210 min, according to the Draize modified test scoring system.

`CCCCCCCCCCCCCCCCCC[N+](C)(C)CCCCCCCCCCCCCCCCCC.[Br-]` [DDAB, dimethyldioctadecylammonium bromide]: the “toxicity in ocular delivery” value in [1] is given as “had not shown any toxicity”.

As to `[Na+].[OH-]` [NaOH], the HET-CAM irritation classification entry in series [2] was “severe irritant”.

As for `O=c1cc(-c2ccc(O)cc2)oc2cc(O)cc(O)c12` [free APG, Apigenin], the “Draize test irritancy in vivo” value in series [3] (50 μL in conjunctival sac) is listed as “non-irritant”. Also, the discomfort after instillation result in series [3] (in vivo) is “caused an initial discomfort”. Further, the “fluorescein staining score, corneal surface” value in series [4] is “worse punctuation in the staining”. Besides, the “in vitro release profile” value in [5] (48 h) is reported as “faster release”. In series [5] (at 24 h, 32° C., PBS with 5% polysorbate 80 and 20% ethanol), the APG released was 100%. The “tear flow (Schirmer test) versus dry eye group” value in series [6] is listed as “did not improve the tear flow”. The “cytotoxicity against cancer cells” value in the series with UM 92.1 cancer cells is on record as “significant toxicity”. The cell viability in the series with HCE-2 cells is reported as at least 80%. Further, the “cell viability / toxicity” value in the series on HCE-2 cells (all the tested concentrations) was “did not show toxicity”. In the series with CAM of embryonated eggs, the “vascular density versus negative control (NaCl)” value is “not significant”. Besides, the “TBS quantitative result (irritancy)” value in [7] is reported as “irritant”. For the same compound, the inflammation treatment effect entry in series [8] is listed as “able to treat fast the inflammation”.
